Laboratory results reported in ChEMBL document CHEMBL3822398, “Design, synthesis and in vitro biological evaluation of short-chain C12-sphinganine and its 1,2,3-triazole analogs as potential antimicrobial and anti-biofilm agents” (Eur J Med Chem, 2016).
≈ marks a conversion by molar mass, not a printed value.

What was measured:
Assay type in all cases: functional
Candida albicans [1] = assay: Fungicidal activity against Candida albicans MTCC 227 incubated for 24 hrs; settings: MTCC 227, 24 h
Escherichia coli [2] = assay: Bactericidal activity against Escherichia coli MTCC 739 incubated for 24 hrs; settings: MTCC 739, 24 h
[Candida] aaseri [3] = Antifungal activity against Candida aaseri MTCC 1962 incubated for 24 hrs at 30 degC by well diffusion method; settings: Yamadazyma aaseri, MTCC 1962, 24 h
Candida parapsilosis [4] = assay: Fungicidal activity against Candida parapsilosis MTCC 1744 incubated for 24 hrs; settings: Lodderomyces parapsilosis, MTCC 1744, 24 h
Pichia kudriavzevii [5] = assay: Antifungal activity against Candida krusei MTCC 3020 incubated for 24 hrs at 30 degC by well diffusion method; settings: MTCC 3020, 24 h
Bacillus subtilis [6] = assay: Bactericidal activity against Bacillus subtilis MTCC 121 incubated for 24 hrs; settings: MTCC 121, 24 h
[Candida] aaseri [7] = Fungicidal activity against Candida aaseri MTCC 1962 incubated for 24 hrs; settings: Yamadazyma aaseri, MTCC 1962, 24 h
Staphylococcus aureus [8] = assay: Bactericidal activity against Staphylococcus aureus MTCC 96 incubated for 24 hrs; settings: MTCC 96, 24 h
Raoultella planticola [9] = assay: Antibacterial activity against Klebsiella planticola MTCC 530 incubated for 24 hrs at 37 degC by well diffusion method; settings: MTCC 530, 24 h
Candida albicans [10] = assay: Antifungal activity against Candida albicans MTCC 1637 incubated for 24 hrs at 30 degC by well diffusion method; settings: MTCC 1637, 24 h
Nakaseomyces glabratus [11] = assay: Fungicidal activity against Candida glabrata MTCC 3019 incubated for 24 hrs; settings: MTCC 3019, 24 h
Staphylococcus aureus [12] = assay: Bactericidal activity against Staphylococcus aureus MLS16 MTCC 2940 incubated for 24 hrs; settings: MLS16 MTCC 2940, 24 h
Pichia sporocuriosa [13] = assay: Fungicidal activity against Issatchenkia hanoiensis MTCC 4755 incubated for 24 hrs; settings: MTCC 4755, 24 h
Staphylococcus aureus [14] = assay: Antibacterial activity against Staphylococcus aureus MTCC 96 incubated for 24 hrs at 37 degC by well diffusion method; settings: MTCC 96, 24 h
Candida albicans [15] = assay: Antifungal activity against Candida albicans MTCC 227 incubated for 24 hrs at 30 degC by well diffusion method; settings: MTCC 227, 24 h
Candida albicans [16] = assay: Antifungal activity against Candida albicans MTCC 854 incubated for 24 hrs at 30 degC by well diffusion method; settings: MTCC 854, 24 h
Candida albicans [17] = assay: Antifungal activity against Candida albicans MTCC 3958 incubated for 24 hrs at 30 degC by well diffusion method; settings: MTCC 3958, 24 h
Candida albicans [18] = assay: Fungicidal activity against Candida albicans MTCC 7315 incubated for 24 hrs; settings: MTCC 7315, 24 h
Candida albicans [19] = assay: Fungicidal activity against Candida albicans MTCC 854 incubated for 24 hrs; settings: MTCC 854, 24 h
Candida albicans [20] = assay: Fungicidal activity against Candida albicans MTCC 3017 incubated for 24 hrs; settings: MTCC 3017, 24 h
Raoultella planticola [21] = assay: Bactericidal activity against Klebsiella planticola MTCC 530 incubated for 24 hrs; settings: MTCC 530, 24 h
Escherichia coli [22] = assay: Antibacterial activity against Escherichia coli MTCC 739 incubated for 24 hrs at 37 degC by well diffusion method; settings: MTCC 739, 24 h
Candida parapsilosis [23] = assay: Antifungal activity against Candida parapsilosis MTCC 1744 incubated for 24 hrs at 30 degC by well diffusion method; settings: Lodderomyces parapsilosis, MTCC 1744, 24 h
Staphylococcus aureus [24] = assay: Antibacterial activity against Staphylococcus aureus MLS16 MTCC 2940 incubated for 24 hrs at 37 degC by well diffusion method; settings: MLS16 MTCC 2940, 24 h
Candida albicans [25] = assay: Fungicidal activity against Candida albicans MTCC 4748 incubated for 24 hrs; settings: MTCC 4748, 24 h
Pichia kudriavzevii [26] = assay: Fungicidal activity against Candida krusei MTCC 3020 incubated for 24 hrs; settings: MTCC 3020, 24 h
Micrococcus luteus [27] = assay: Antibacterial activity against Micrococcus luteus MTCC 2470 incubated for 24 hrs at 37 degC by well diffusion method; settings: MTCC 2470, 24 h
Candida albicans [28] = assay: Antifungal activity against Candida albicans MTCC 4748 incubated for 24 hrs at 30 degC by well diffusion method; settings: MTCC 4748, 24 h
Candida albicans [29] = assay: Fungicidal activity against Candida albicans MTCC 3958 incubated for 24 hrs; settings: MTCC 3958, 24 h
Pseudomonas aeruginosa = assay: Antibacterial activity against Pseudomonas aeruginosa MTCC 2453 incubated for 24 hrs at 37 degC by well diffusion method; settings: MTCC 2453, 24 h
Candida albicans [30] = assay: Antifungal activity against Candida albicans MTCC 7315 incubated for 24 hrs at 30 degC by well diffusion method; settings: MTCC 7315, 24 h
Candida albicans [31] = assay: Antifungal activity against Candida albicans MTCC 3017 incubated for 24 hrs at 30 degC by well diffusion method; settings: MTCC 3017, 24 h
Bacillus subtilis [32] = assay: Antibacterial activity against Bacillus subtilis MTCC 121 incubated for 24 hrs at 37 degC by well diffusion method; settings: MTCC 121, 24 h
Micrococcus luteus [33] = assay: Bactericidal activity against Micrococcus luteus MTCC 2470 incubated for 24 hrs; settings: MTCC 2470, 24 h
Nakaseomyces glabratus [34] = assay: Antifungal activity against Candida glabrata MTCC 3019 incubated for 24 hrs at 30 degC by well diffusion method; settings: MTCC 3019, 24 h
Candida albicans [35] = assay: Fungicidal activity against Candida albicans MTCC 183 incubated for 24 hrs; settings: MTCC 183, 24 h
Candida albicans [36] = assay: Fungicidal activity against Candida albicans MTCC 1637 incubated for 24 hrs; settings: MTCC 1637, 24 h
Candida albicans [37] = assay: Antifungal activity against Candida albicans MTCC 3018 incubated for 24 hrs at 30 degC by well diffusion method; settings: MTCC 3018, 24 h
Candida albicans [38] = assay: Antifungal activity against Candida albicans MTCC 183 incubated for 24 hrs at 30 degC by well diffusion method; settings: MTCC 183, 24 h
Pichia sporocuriosa [39] = assay: Antifungal activity against Issatchenkia hanoiensis MTCC 4755 incubated for 24 hrs at 30 degC by well diffusion method; settings: MTCC 4755, 24 h
Candida albicans [40] = assay: Fungicidal activity against Candida albicans MTCC 3018 incubated for 24 hrs; settings: MTCC 3018, 24 h

CCCCCCCCC[C@@H](O)[C@@H](N)CO
MFC (Candida albicans [1]): 62.5 µg/mL (≈ 288 µM)
MBC (Escherichia coli [2]): 31.2 µg/mL (≈ 144 µM)
MIC ([Candida] aaseri [3]): 15.6 µg/mL (≈ 71.8 µM)
MFC (Candida parapsilosis [4]): 62.5 µg/mL (≈ 288 µM)
MIC (Pichia kudriavzevii [5]): 15.6 µg/mL (≈ 71.8 µM)
MBC (Bacillus subtilis [6]): > 250 µg/mL
MFC ([Candida] aaseri [7]): 31.2 µg/mL (≈ 144 µM)
MBC (Staphylococcus aureus [8]): > 250 µg/mL
MIC (Raoultella planticola [9]): 15.6 µg/mL (≈ 71.8 µM)
MIC (Candida albicans [10]): 15.6 µg/mL (≈ 71.8 µM)
MFC (Nakaseomyces glabratus [11]): 7.8 µg/mL (≈ 35.9 µM)
MBC (Staphylococcus aureus [12]): 31.2 µg/mL (≈ 144 µM)
MFC (Pichia sporocuriosa [13]): 15.6 µg/mL (≈ 71.8 µM)
MIC (Staphylococcus aureus [14]): > 250 µg/mL
MIC (Candida albicans [15]): 31.2 µg/mL (≈ 144 µM)
MIC (Candida albicans [16]): 31.2 µg/mL (≈ 144 µM)
MIC (Candida albicans [17]): 15.6 µg/mL (≈ 71.8 µM)
MFC (Candida albicans [18]): 62.5 µg/mL (≈ 288 µM)
MFC (Candida albicans [19]): 31.2 µg/mL (≈ 144 µM)
MFC (Candida albicans [20]): 31.2 µg/mL (≈ 144 µM)
MBC (Raoultella planticola [21]): 31.2 µg/mL (≈ 144 µM)
MIC (Escherichia coli [22]): 15.6 µg/mL (≈ 71.8 µM)
MIC (Candida parapsilosis [23]): 62.5 µg/mL (≈ 288 µM)
MIC (Staphylococcus aureus [24]): 31.2 µg/mL (≈ 144 µM)
MFC (Candida albicans [25]): 31.2 µg/mL (≈ 144 µM)
MFC (Pichia kudriavzevii [26]): 31.2 µg/mL (≈ 144 µM)
MIC (Micrococcus luteus [27]): 3.9 µg/mL (≈ 17.9 µM)
MIC (Candida albicans [28]): 31.2 µg/mL (≈ 144 µM)
MFC (Candida albicans [29]): 31.2 µg/mL (≈ 144 µM)
MIC (Pseudomonas aeruginosa): > 250 µg/mL
MIC (Candida albicans [30]): 31.2 µg/mL (≈ 144 µM)
MIC (Candida albicans [31]): 15.6 µg/mL (≈ 71.8 µM)
MIC (Bacillus subtilis [32]): > 250 µg/mL
MBC (Micrococcus luteus [33]): 7.8 µg/mL (≈ 35.9 µM)
MIC (Nakaseomyces glabratus [34]): 7.8 µg/mL (≈ 35.9 µM)
MFC (Candida albicans [35]): 15.6 µg/mL (≈ 71.8 µM)
MFC (Candida albicans [36]): 15.6 µg/mL (≈ 71.8 µM)
MIC (Candida albicans [37]): 7.8 µg/mL (≈ 35.9 µM)
MIC (Candida albicans [38]): 15.6 µg/mL (≈ 71.8 µM)
MIC (Pichia sporocuriosa [39]): 15.6 µg/mL (≈ 71.8 µM)
MFC (Candida albicans [40]): 15.6 µg/mL (≈ 71.8 µM)

O=C(O)c1cn(C2CC2)c2cc(N3CCNCC3)c(F)cc2c1=O [CIPROFLOXACIN]
MBC (Escherichia coli [2]): 1.9 µg/mL (≈ 5.73 µM)
MBC (Bacillus subtilis [6]): 1.9 µg/mL (≈ 5.73 µM)
MBC (Staphylococcus aureus [8]): 0.9 µg/mL (≈ 2.72 µM)
MIC (Raoultella planticola [9]): 0.9 µg/mL (≈ 2.72 µM)
MBC (Staphylococcus aureus [12]): 1.9 µg/mL (≈ 5.73 µM)
MIC (Staphylococcus aureus [14]): 0.9 µg/mL (≈ 2.72 µM)
MBC (Raoultella planticola [21]): 0.9 µg/mL (≈ 2.72 µM)
MIC (Escherichia coli [22]): 0.9 µg/mL (≈ 2.72 µM)
MIC (Staphylococcus aureus [24]): 0.9 µg/mL (≈ 2.72 µM)
MIC (Micrococcus luteus [27]): 0.9 µg/mL (≈ 2.72 µM)
MIC (Pseudomonas aeruginosa): 0.9 µg/mL (≈ 2.72 µM)
MIC (Bacillus subtilis [32]): 0.9 µg/mL (≈ 2.72 µM)
MBC (Micrococcus luteus [33]): 0.9 µg/mL (≈ 2.72 µM)

CCCCCCCCC[C@@H](O)[C@H](CO)n1cc(CO)nn1
MBC (Escherichia coli [2]): > 250 µg/mL
MBC (Bacillus subtilis [6]): 31.2 µg/mL (≈ 104 µM)
MBC (Staphylococcus aureus [8]): > 250 µg/mL
MIC (Raoultella planticola [9]): > 250 µg/mL
MBC (Staphylococcus aureus [12]): > 250 µg/mL
MIC (Staphylococcus aureus [14]): > 250 µg/mL
MBC (Raoultella planticola [21]): > 250 µg/mL
MIC (Escherichia coli [22]): > 250 µg/mL
MIC (Staphylococcus aureus [24]): > 250 µg/mL
MIC (Micrococcus luteus [27]): 7.8 µg/mL (≈ 26.1 µM)
MIC (Pseudomonas aeruginosa): > 250 µg/mL
MIC (Bacillus subtilis [32]): 31.2 µg/mL (≈ 104 µM)
MBC (Micrococcus luteus [33]): 15.6 µg/mL (≈ 52.1 µM)
